Test results from US20220257516A1, “THERAPEUTIC CONSTRUCTS FOR CO-DELIVERY OF MITOTIC KINASE INHIBITOR AND IMMUNE CHECKPOINT INHIBITOR” (Oregon Health & Science University, priority 2019, published 2022).

Columns and labels:
[1] = tested on: PLK1 mRNA; experiment: PLK1 knock down by siRNA (RT-qPCR / protein); type: cell-based, human; settings: A549; 48 hr post treatment; normalized to HPRT
Method: (§1) FIGS. 2A-2D. Effects of siRNA against mitotic regulator PLK1 (siPLK1) on non-small-cell lung carcinoma (NSCLC) cell lines (A549 and H460). (FIG. 2A) 48-hr PLK1 mRNA knockdown (HPRT used as house-keeping gene) and (FIG. 2B) 72-hr PLK1 protein reduction at 50 nM siRNA dose. (FIG. 2C) 4-day cell viability at 30 nM siRNA dose. (FIG. 2D) Cell cycle arrest increase in G2/M phase in A549 72 hr post treatment. Antibody (cetuximab) conjugated NP was used to deliver the siPLK1 (C-siPLK1-NP) or scrambled siRNA control (C-siSCR-NP) at 50 nM siRNA BI 2536 (a PLK1 inhibitor) was used as a drug benchmark at 10 nM. Data presented as mean±SD from independent duplicates (10,000 events per sample); ****P<0.0001 vs. untreat control. Unless specified otherwise, “NP” denotes mesoporous silica nanoparticles coated with cross-linked PEI and PEG, as described in Ngamcherdtrakul et al., Advanced Functional Materials, 25(18):2646-2659, 2015 and U.S. Patent Application Publication No. 2017/0173169.
FIGS. 3A-3C. […] (FIG. 3B) PD-L1 surface expression of A549 (FIG. 2B) and LLC-JSP (a mouse NSCLC, FIG. 3C) at 72 hr post treatments assessed by flow cytometry (10,000 events per sample). […]
RT-qPCR to assess PLK1 gene knock down: RNA was isolated with GeneJet RNA purification kit (Thermo Fisher Scientific) following manufacturer's instructions. […] Data was analyzed using 2^−ΔΔC(t) method.

[2] = tested on: PD-L1 mRNA expression in A549; experiment: PD-L1 mRNA expression after PLK1 knock-down (RT-qPCR); type: cell-based, human; settings: 48 hr, compared with control treated cells
Excerpt: (§2) FIGS. 3A-3C. […] (FIG. 3A) PLK1 and PD-L1 mRNA expression in A549 (human NSCLC) at 48 hr post treatment with PLK1 siRNA (siPLK1) or scrambled siRNA (siSCR) normalized to HPRT housekeeping gene. Data presented as mean±SD from triplicates; ****P<0.0001. (FIG. 3B) PD-L1 surface expression of A549 ([…]) and LLC-JSP (a mouse NSCLC, FIG. 3C) at 72 hr post treatments assessed by flow cytometry (10,000 events per sample). Mouse siPLK1 seq. […] (SEQ ID NO: 1); Human siPLK1 seq. […] (SEQ ID NO: 2).
RT-qPCR to assess PLK1 gene knock down: RNA was isolated with GeneJet RNA purification kit (Thermo Fisher Scientific) following manufacturer's instructions. One-Step qRT-PCR was performed using EXPRESS One-Step Superscript™ qRT-PCR Kit (Invitrogen). Cycling conditions: 50° C. for 2 min, 95° C. for 10 min, 40 cycles of 95° C. for 15 s, and 60° C. for 1 min. TAQMAN gene expression primers Human HPRT mRNA (Hs99999909_m1), Human PLK1 mRNA (Hs00983225_g1), and Human PD-L1 (Hs00204257_ml) were used. Data was analyzed using 2^−ΔΔC(t) method.

[3] = tested on: phosphorylated STAT3 (Tyr705); experiment: Western blot of phosphorylated STAT3 after PLK1 inhibition; type: cell-based, human; settings: A549 and H460; 3 days post treatment; 50 nM siRNA
Method: (§3) FIGS. 12A and 12B. Inhibition of PLK1 reduces phosphorylation of STAT3. Western blot showing protein expression of PLK1, Pl3Ka, phosphorylated STAT3 (Tyr705), phosphorylated AKT (Ser473), and p-Actin 3 days post treatment (50 nM siRNA) in A549 and H460 NSCLC cell lines. […] The cells were treated with NP containing 30 nM siRNA against PD-L1 (siPDL1) or 30 nM scrambled siRNA (siSCR) at 2 wt. % siRNA. At 72 hr post treatment, cells were harvested and assessed for PD-L1 protein expression by flow cytometry. RFU=Relative fluorescence units.
Western Blot. Cells were seeded in 6 well plates overnight and treated with indicated treatments. Cell culture medium was changed one day aftertreatment. Three days post treatment, cells were lysed in RIPA buffer (50-100 μl per well). Lysate was sonicated and centrifuged (15,000 RPM for 15 minutes) and supernatant was collected. Amount of total protein was quantified using BCA. 30 μg of proteins (per sample) were mixed with 4× Novex NuPAGE LDS sample buffer and beta-mercaptoethanol (10% final concentration). Samples were denatured for 5 min at 95° C. and loaded onto gel (NuPAGE) for electrophoresis. Proteins were then transferred onto PVDF-FL membrane and blocked with LICOR blocking buffer. Membranes were incubated with primary antibodies overnight (PLK1, phospho-STAT3 (Tyr705), β-ACTIN) at 4° C. […]

[4] = tested on: PD-L1 surface expression of A549; experiment: PD-L1 surface expression by flow cytometry, A549; type: cell-based, human; settings: 3 days (72 hr) post siRNA treatment
Excerpt: as §2
Flow cytometry: Cells (100K cells/well) were plated in 6 well plates overnight and treated with indicated treatments the next day. Following treatments, cells were collected and aliquoted to […] per sample before washing in FACs buffer and staining. Primary and secondary antibodies were stained for 30 mins and 1 hour, respectively, under rocking on ice. After staining, cells were washed in FACs buffer before flow analysis with Guava easyCyte (Millipore Sigma) flow cytometer (10,000 events per sample). For tumors, tumors were harvested, minced, and incubated with 1 mg/ml DNAse for 30 minutes before smashing through 70 μm filter to obtain single cell suspension. RBC lysis buffer was incubated with cells for 5 minutes, and washed with PBS. […] Cells were then washed with FACs buffer and analyzed with Guava (50,000 events per sample).

[5] = tested on: PD-L1 surface expression of LLC-JSP cells; experiment: PD-L1 surface expression by flow cytometry, LLC-JSP; type: cell-based, mouse; settings: for surface PD-L1 level of surviving cells: 500 ng/ml
Method: FIGS. 4A-4C Treatment effects of mitotic kinase inhibitors on (A) 3-day viability of LLC-JSP cells, (B) PD-L1 expression levels of surviving cells post treatment with 500 ng/ml of volasertib, alisertib, or AZD7762 as determined by flow cytometry and (C) their quantification.
FIGS. 6A-6D Nanoparticle delivery of PLK1 inhibitor volasertib (iPLK1-NP) to mouse NSCLC cells. (FIG. 6A) Schematic of synthesis of iPLK1-NP. (FIG. 6B) Hydrodynamic size of NP (with no inhibitor) and iPLK1-NP measured with Zetasizer. (FIG. 6C) Viability of LLC-JSP cells treated with volasertib (in 1% DMSO/PBS), iPLK1-NP (in PBS), or 1% DMSO/PBS for 4 days. Data presented as mean±SD from 4 independent samples; ****P<0.0001. (FIG. 6D) PD-L1 surface expression of LLC-JSP cells treated with PBS or iPLK1-NP (42 μg/ml NP, 210 ng/ml volasertib) for 3 days.
FIGS. 7A-7E. Nanoparticle for co-delivery of PLK1 inhibitor (iPLK1) and PD-L1 antibody (p-iPLK1-NP). (FIG. 7A) Schematic and (FIG. 7B) hydrodynamic size of p-iPLK1-NP containing 4 wt. % of PD-L1 antibody and 0.5 wt. % of PLK1 inhibitor. (FIG. 7C) 5-day cell viability of LLC-JSP cells treated with iPLK1-NP or p-iPLK1-NP. Data presented as mean±SD from 4 independent samples; ns—not significant. PD-L1 surface expression assessed by flow cytometry after LLC-JSP cells were incubated with various treatments as specified for (FIG. 7D) 2 hrs and (FIG. 7E) 2 days. Doses: free PD-L1 antibody (50 μg/ml), iPLK1-NP (NP containing 50 μg/ml volasertib), and p-iPLK1-NP (NP containing 50 μg/ml volasertib and 2 μg/ml PD-L1 antibody). Left of FIGS. 7D and 7E: representative histograms, right: median intensity (RFU). Data presented as mean±SD from independent duplicates (10,000 events per sample); *P<0.05, **P<0.01, ***P<0.001, ****P<0.0001. Unless specified otherwise, the percent loading is by weight of nanoparticle throughout the application.
as §3
Flow cytometry: Cells (100K cells/well) were plated in 6 well plates overnight and treated with indicated treatments the next day. Following treatments, cells were collected and aliquoted to […] per sample before washing in FACs buffer and staining. […] Cells were then washed with FACs buffer and analyzed with Guava (50,000 events per sample).

[6] = tested on: A549; experiment: Cell cycle arrest in G2/M phase; type: cell-based, human; settings: 72 hr post treatment, 50 nM siRNA, BI 2536 at 10 nM
Method: as §1

[7] = tested on: LLC-JSP cells; experiment: Cell viability after treatments (Cell Titer Glo), LLC-JSP; type: cell-based, mouse; settings: for 3-day viability of LLC-JSP cells: free mitotic kinase inhibitors
Method: (C) Cell viability of murine cancer cells (LLC-JSP, 4T1, B16-F10) and murine bone marrow-derived dendritic cells (BMDC) treated with p-iPLK1-NP.
(B) Treatment effect of ADC versus free alisertib of equivalent dose on viability of LLC-JSP cells (2-days). Free alisertib was dissolved in DMSO before use.
Cell viability after treatments: Cells (1500/well) were plated in white flat bottom 96 well plate overnight. The following day, cells were treated with indicated treatments and media was changed 24 hr post treatment. 3-5 day post treatment, cell viability was assessed using Cell Titer Glo assay (Promega) following manufacturer's instructions. Luminescence was read with Tecan plate reader.

siPLK1: siRNA against PLK1, antisense 5′-UAUUCAUUCUUCUUGAUCCGG-3′; SEQ ID NO: 2 (sense strand lacks entry, further chemistry not given here)
knockdown of PLK1 mRNA [1]: 85% | increase in PD-L1 mRNA expression [2]: 2.5 fold | phosphorylation of STAT3 [3]: reduced phosphorylation of STAT3 | PD-L1 surface expression [4]: increase in PD-L1 surface expression

Mouse siPLK1: Mouse siPLK1 seq. GUGGGCGUGGUACCAUCUGUU (SEQ ID NO: 1) (listed as RNA, chemistry not given here)
PD-L1 surface expression ([5]; 72 hr post siRNA treatment): induces PD-L1 expression

CC[C@@H]1C(=O)N(C)c2cnc(Nc3ccc(C(=O)NC4CCN(C)CC4)cc3OC)nc2N1C1CCCC1 [BI2536]
cell cycle arrest in G2/M phase [6]: G2/M growth arrest

NC(=O)Nc1cc(-c2cccc(F)c2)sc1C(=O)N[C@H]1CCCNC1 [AZD7762]
3-day viability of LLC-JSP cells [7]: significant cell death | surface PD-L1 level of surviving cells [5]: upregulated surface PD-L1 level

COc1cc(Nc2ncc3c(n2)-c2ccc(Cl)cc2C(c2c(F)cccc2OC)=NC3)ccc1C(=O)O [alisertib]
3-day viability of LLC-JSP cells [7]: significant cell death | surface PD-L1 level of surviving cells [5]: upregulated surface PD-L1 level

CC[C@@H]1C(=O)N(C)c2cnc(Nc3ccc(C(=O)N[C@H]4CC[C@H](N5CCN(CC6CC6)CC5)CC4)cc3OC)nc2N1C(C)C [volasertib]
cell viability compared with vehicle treated cells ([7]; LLC-JSP, 4 days, dose-dependent): significantly reduced cell viability | 3-day viability of LLC-JSP cells [7]: significant cell death | surface PD-L1 level of surviving cells [5]: upregulated surface PD-L1 level
